SMILES strings stand for the structures. Where a name gives a salt, the structure may show the parent alone.

For assay [1], the system named is B16 cells. Description: Tumor growth inhibitory action test using cancer models in mice (B16 cells). The assay is classed as in vivo. The following applies: C57BL/6N mouse, B16 cells intradermal; 100 mg/kg/day oral once a day, day 0 to day 10; average of 9 mice per group; read-out: Tumor tissue weight inhibition rate (%). The procedure:
A tumor growth inhibitory action test of the compounds of the present invention was performed using a tumor growth model in mice, which is one of the widely-used methods of evaluating in vivo anticancer effects of drugs.
As one of the widely-used methods of evaluating anticancer effects of drugs, a tumor growth inhibitory action test using cancer models in mice has been reported in Cancer Res., 59, 5209-5218 (1999). According to the method described in the above-mentioned document, a tumor growth inhibitory action test of the compounds of the present invention was performed, the tumor tissue weight inhibition rate was calculated, and the anticancer effect of each of the compounds of the present invention was evaluated using the obtained rate as an index.
A 1% aqueous methyl cellulose solution was added to each test compound to suspend it with a sonicator, whereby a 10 mg/mL test compound suspension was prepared.
Physiological saline was added to B16 cells, whereby a 3.3×10^7 cells/mL B16 cell suspension was prepared.
• 1) The back of each mouse (female, 6 weeks of age, C57BL/6N mouse) was depilated using a depilatory under Nembutal anesthesia. • 2) Several days after the depilation, the B16 cell suspension (300 μL) was injected intradermally into the back of the mouse under Nembutal anesthesia. • 3) From the B16 cell injection day (i.e. on day 0) to day 10, the test compound suspension (100 mg/kg/day) was orally administered once a day consecutively. • 4) Ten days after the injection of the cells, the mouse was euthanized with CO2 gas. • 5) A tumor tissue was enucleated from the mouse, and the weight of the tumor tissue was measured with an electronic balance. • 6) A test was performed in the same manner as in 1) to 5) except that the 1% aqueous methyl cellulose solution was used instead of the test compound suspension, and the result was used as a control. (Calculation of Tumor Tissue Weight Inhibition Rate)
A tumor tissue weight inhibition rate (the average of 9 mice per group), which was used as an index of anticancer effect, was calculated according to the following calculation equation. Tumor tissue weight inhibition rate (%)=100−(Mx/Mo)×100 (Calculation Equation) Mo: Tumor tissue weight of control group Mx: Tumor tissue weight of test compound solution administration group (Test Results and Discussion)

The test system of assay [2] is choroidal neovascularization models in rats. The assay is described as follows: Neovascularization incidence test using laser-induced choroidal neovascularization models in rats. The assay is classed as in vivo. The settings on record: 168 h; Brown Norway rat, krypton laser photocoagulation; 30 mg/kg/day oral once a day for 7 days; fluorescein fundus photography on day 7; average of 3 to 4 rats and 6 to 8 eyes; read-out: Ratio of neovascularization incidence rate (% of Control). The procedure:
A neovascularization incidence test of the compounds of the present invention was performed using a choroidal neovascularization model in rats, which is one of the widely-used methods of evaluating in vivo choroidal neovascularization inhibitory effects of drugs.
As one of the widely-used methods of evaluating choroidal neovascularization inhibitory effects of drugs, a neovascularization incidence test using choroidal neovascularization models in rats was reported in Graefe's Arch. Cli. Exp. Ophthalmol., 235, 313-319 (1997). According to the method described in the above-mentioned document, a neovascularization incidence test of the compounds of the present invention was performed, the ratio of neovascularization incidence rate of each of the compounds of the present invention administration groups to a neovascularization incidence rate of vehicle administration group (control group) was calculated, and the choroidal neovascularization inhibitory effect of each of the compounds of the present invention was evaluated using the obtained ratio as an index.
A 1% aqueous methyl cellulose solution was added to each test compound to suspend it, whereby a 6 mg/10 mL test compound suspension was prepared.
• 1) A 7:1 mixed solution (1 mL/kg) of a 5% ketamine hydrochloride injection and a 2% xylazine hydrochloride injection was administered intramuscularly to rats (Brown Norway male rat, 8 weeks of age, weight: 200 to 250 g) to anesthetize them systemically. • 2) A tropicamide-phenylephrine hydrochloride ophthalmic solution (trade name: Mydrin-P) was instilled into eyes to cause mydriasis, and then photocoagulation was performed in a Bruch's membrane of each rat using a krypton laser photocoagulation apparatus.
The laser photocoagulation was performed at 8 spots per eye sparsely avoiding thick retinal vessels in a posterior section of ocular fundus and focusing on the deep layer of the retina. Photocoagulation conditions were adjusted to 100 μm of spot size, 100 mW of intensity and 0.1 sec. dulation. • 3) After the photocoagulation, the ocular fundus was photographed to confirm photocoagulation (laser irradiation) sites. (Method of Test and Method of Measurement) • 1) From the laser photocoagulation day (i.e. on day 0) to day 6, the test compound suspension (30 mg/kg/day) was administered orally once a day for 7 consecutive days. • 2) As the vehicle administration group (control group), a test was performed in the same manner as in 1) except that the 1% aqueous methyl cellulose solution was used instead of the test compound suspension, and the result was used as a control. (Method of Evaluation) • 1) On day 7 after the photocoagulation, 0.1 mL of a 10% aqueous fluorescein solution was injected into a tail vein of the rat, and fluorescein fundus photography was performed. • 2) Next, in the fluorescein fundus photography, a spot where fluorescence leak was not observed was judged as negative, and a spot where fluorescence leak was observed was judged as positive. Photocoagulation sites where a little fluorescence leak was observed were judged as positive when two such sites are present. • 3) The neovascularization incidence rate was calculated according to the calculation equation 1. The ratio of the neovascularization incidence rate of the test compound administration group to that of the vehicle administration group was calculated according to the calculation equation 2 using the neovascularization incidence rate of the respective administration groups. […]

As for `CC(=O)Nc1cc(CSc2ncccc2C(=O)Nc2ccc(Cl)cc2)ccn1` [Compound 4-10, 2-(2-Acetylaminopyridin-4-ylmethylthio)-N-(4-chlorophenyl)pyridine-3-carboxamide], the inhibition in vivo at 100 mg/kg/day in assay [1] came to 75%. Also, the response vs control in vivo at 30 mg/kg/day in assay [2] turned out to be 9%.

As to `CC(=O)Nc1cc(CSc2ncccc2C(=O)Nc2ccc(OC(F)(F)F)cc2)ccn1` [Compound 4-11, 2-(2-Acetylaminopyridin-4-ylmethylthio)-N-(4-trifluoromethoxyphenyl)pyridine-3-carboxamide], the inhibition in vivo at 100 mg/kg/day in assay [1] stood at 86%. Besides, the response vs control in vivo at 30 mg/kg/day in assay [2] worked out at 0%.

For `CC(=O)Nc1cc(CSc2ncccc2C(=O)Nc2cc(C)cc(C)c2)ccn1` [Compound 4-1, 2-(2-Acetylaminopyridin-4-ylmethylthio)-N-(3,5-dimethylphenyl)pyridine-3-carboxamide], the inhibition in vivo at 100 mg/kg/day in assay [1] was determined as 75%. In addition, the response vs control in vivo at 30 mg/kg/day in assay [2] was found to be 3%.

Consider `Nc1cc(CSc2ncccc2C(=O)Nc2ccc(OC(F)(F)F)cc2)ccn1` [Compound 3-10, 2-(2-Aminopyridin-4-ylmethylthio)-N-(4-trifluoromethoxyphenyl)pyridine-3-carboxamide], for which the inhibition in vivo at 100 mg/kg/day in assay [1] was determined as 85%. For the same compound, the response vs control in vivo at 30 mg/kg/day in assay [2] is 7%.

For the compound `CNC(=O)Nc1cc(CSc2ncccc2C(=O)Nc2cc(C)cc(C)c2)ccn1` [Compound 9-1, N-(3,5-Dimethylphenyl)-2-[2-(N′-methylureido)pyridin-4-ylmethylthio]pyridine-3-carboxamide], the inhibition in vivo at 100 mg/kg/day in assay [1] was 43%. For the same compound, in assay [2], the response vs control in vivo at 30 mg/kg/day was found to be 8%.

`Cc1cc(C)cc(NC(=O)c2cccnc2SCc2ccnc(N)c2)c1` [Compound 3-1, 2-(2-Aminopyridin-4-ylmethylthio)-N-(3,5-dimethylphenyl)pyridine-3-carboxamide monohydrochloride]: the inhibition in vivo at 100 mg/kg/day in assay [1] was 70%. For the same compound, the response vs control in vivo at 30 mg/kg/day in assay [2] worked out at 12%.

Regarding `CC(=O)OCC(=O)Nc1cc(CSc2ncccc2C(=O)Nc2cc(C)cc(C)c2)ccn1` [Compound 10-1, 2-(2-Acetoxyacetylaminopyridin-4-ylmethylthio)-N-(3,5-dimethylphenyl)pyridine-3-carboxamide], in assay [1], the inhibition in vivo at 100 mg/kg/day was found to be 54%. For the same compound, in assay [2], the response vs control in vivo at 30 mg/kg/day worked out at 11%.

Regarding `CNc1cc(CSc2ncccc2C(=O)Nc2ccc(OC(F)(F)F)cc2)ccn1` [Compound 3-8, 2-(2-Methylaminopyridin-4-ylmethylthio)-N-(4-trifluoromethoxyphenyl)pyridine-3-carboxamide monohydrochloride], the inhibition in vivo at 100 mg/kg/day in assay [1] amounted to 80%. The response vs control in vivo at 30 mg/kg/day in assay [2] is 6%.

`O=C(CO)Nc1cc(CSc2ncccc2C(=O)Nc2ccc(OC(F)(F)F)cc2)ccn1` [Compound 12-1, 2-(2-Hydroxyacetylaminopyridin-4-ylmethylthio)-N-(4-trifluoromethoxyphenyl)pyridine-3-carboxamide]: the inhibition in vivo at 100 mg/kg/day in assay [1] was 85%. Also, the response vs control in vivo at 30 mg/kg/day in assay [2] worked out at 6%.

These data come from patent US7544703B2, “Cyclic compound having 4-pyridylalkylthio group having substituted or unsubstituted amino group introduced therein” (Santen Pharmaceutical Co., Ltd., priority 2004, dated 2009).
